Test results from PMC10454728, “A Comparative Study on the Lysosomal Cation Channel TMEM175 Using Automated Whole-Cell Patch-Clamp, Lysosomal Patch-Clamp, and Solid Supported Membrane-Based Electrophysiology: Functional Characterization and High-Throughput Screening Assay Development” (International Journal of Molecular Sciences, 2023).
Values joined by “and” are separate entries in the source; they are usually repeats but may differ in a detail not shown here. Equal entries are not always repeated. “Also recorded” adds a separate entry of the source.

Key:
[1] = test system: TMEM175; conditions: 100 µM, whole-cell configuration, +80 mV; ref [6]; cited from earlier work
[2] = target: T1, TMEM175 (Homo sapiens, UniProt Q9BSA9); assay: SSME K+ flux compound assay on purified lysosomes overexpressing TMEM175 (SURFE2R 96SE); assay type: biochemical; conditions: for Relative current / maximum potentiation, SSME: Imax of dose-response curve, baseline 100%, (50 µM)
T1 sequence (Q9BSA9 1-504): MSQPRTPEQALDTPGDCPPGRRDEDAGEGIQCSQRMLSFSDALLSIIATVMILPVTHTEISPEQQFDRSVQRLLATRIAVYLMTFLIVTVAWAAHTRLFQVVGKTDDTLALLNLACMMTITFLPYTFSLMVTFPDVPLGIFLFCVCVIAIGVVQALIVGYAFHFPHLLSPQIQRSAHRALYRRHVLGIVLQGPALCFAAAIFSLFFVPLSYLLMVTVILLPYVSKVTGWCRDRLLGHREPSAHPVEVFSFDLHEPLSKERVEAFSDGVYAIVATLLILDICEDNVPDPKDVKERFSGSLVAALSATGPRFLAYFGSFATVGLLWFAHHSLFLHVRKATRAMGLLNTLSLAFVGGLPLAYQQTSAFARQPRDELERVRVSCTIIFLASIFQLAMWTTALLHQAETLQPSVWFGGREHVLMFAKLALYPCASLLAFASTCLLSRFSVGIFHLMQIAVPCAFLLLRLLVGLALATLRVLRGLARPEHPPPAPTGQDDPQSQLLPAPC
Method: In brief, compound measurements using SSME are performed in a three-step process (Figure 6B). First, TMEM175-mediated K^+ translocation is measured through 50 mM K^+ concentration jumps. This represents the baseline current of TMEM175 activity (I0). […] Third, the activation through a 50 mM K^+ concentration jump is repeated, this time in the presence of the compound to record the modulated TMEM175 current (I). In this process, each individual sensor of the 96-well sensor plate is only exposed to a single concentration of the compound. The relative current amplitude I/I0 is used as a measure of the compound effect and averaged across sensors.
We applied 50 mM K^+ concentration jumps in the absence and presence of different compound concentrations to derive information about compound effects on K^+ flux through TMEM175; (B) Time dependence of recorded peak current amplitudes for the complete workflow, which involves multiple sequential measurements. […] The recording of each sensor well starts with the application of a control measurement, rinsing non-activating solution across the sensor (baseline recording). Afterwards, we performed three solution exchange measurements from 50 mM NaCl to 50 mM KCl to measure K^+ flux through TMEM175 (baseline TMEM175 current, I0). We then rinsed the sensor with non-activating solution containing the compound at a given concentration, followed by incubation of 15 min to equilibrate the sensors with the compound. Subsequently, the solution exchange from 50 mM NaCl to 50 mM KCl is repeated twice, but in the presence of the given compound concentration to determine the modulated peak current I. Afterwards, we repeated the measurement in the absence of the compound three times (wash-out) to recover the non-modulated TMEM175 current. We subtracted the average artifact current recorded with control lysosomes from I and I0 (Figure 1K), without considering off-target effects of the tested compound. […] Success rates were determined based on the QC criteria provided in the Methods section. […] We determined average values, AVGpos and AVGneg, and standard deviations, SDpos and SDneg, of the recorded peak currents. […] Error bars represent the SEM obtained from automated data analysis using DataControl96, based on variations of the currents obtained with the TMEM175 sample. Each compound concentration was recorded with at least N = 8 sensors. […] Imin was always fixed to 0 for inhibitors or 1 for enhancers, as indicated. […] A total of 50 µL of 0.1 mM octadecanethiol in isopropanol was added to each sensor well, following incubation for 30 min at room temperature to form an alkanethiol monolayer on the sensor surface. Subsequently, the sensors were washed twice with isopropanol and three times with ddH2O, before dry-tapping on a tissue. The subsequent process of sensor coating with lipid and lysosomes was carried out manually for the SURFE^2R N1 and automated with the SURFE^2R 96SE serving as a pipetting robot. In both cases, 1.5 µL of 7.5 mg/mL 1,2-diphytanoyl-sn-glycero-3-phosphocholine (DPhPC) in n-decane was added to the center of the circular gold surface, followed by the addition of 50 µL of non-activating solution to form the SSM. The composition of the non-activating solution was adjusted for each experiment (Table 2). […] SSM-coated 96-well sensor plates were stored at −80 °C before use.

[3] = target: T1, TMEM175; assay: Whole-cell automated patch-clamp (APC) Cs+ flux assay, SyncroPatch 384i, HEK293 overexpressing TMEM175; assay type: cell-based
Method: To validate the APC assay, we compared currents between TMEM175-overexpressing cells and control HEK293 UT cells. […] In our compound application protocol, which was used to evaluate compound potencies, we consistently administered tool compounds to assess their impact on TMEM175 activity (Figure 7C).
The voltage protocol generation and data collection were performed with PatchControl384 v1.9.0 and analyzed with DataControl384 v2.2.0. A multi-hole, medium resistance chip with four patch-clamp holes per well was used for recording.
DMSO remained constant at 0.2% and BSA at 0.05% in the external solution throughout the assay, if not stated otherwise.
The voltage protocol applied for the investigation of the tool compounds (Figure 7) consisted of a 500 ms ramp from −80 mV to +80 mV, followed by a 400 ms step from −80 mV to +80 mV before returning to the holding potential of 0 mV (Figure 7B). The maximum outward current amplitude obtained at +80 mV from the ramp section was used for analysis. To investigate the blinded test compounds (Figure 8), an alternative voltage protocol was applied. […] The maximum outward current amplitude obtained at 0 mV from the voltage step section was used for analysis. In both voltage protocols, voltage sweeps were repeated every 10 s and currents sampled at 10 kHz.
The application protocol for agonists consisted of two additions of extracellular physiological solution for a minimum of 3 min, followed by the external application of the test compound for a minimum of 2 min (Figure 7C).
Currents recorded after compound addition were normalized to the baseline current before compound addition, averaged, and plotted over the compound concentration to determine the EC50 and IC50 values.

[4] = target: T1, TMEM175; assay: SSME H+ flux assay (pH jumps) on TMEM175 lysosomes (SURFE2R N1); assay type: biochemical; conditions: corresponding to ~pH 5; read-out: EC50 of H+ influx current vs Δc(H+)
Description: To further investigate the capability of TMEM175 to translocate protons using SSME, we performed H^+ concentration or pH jumps using the SURFE^2R N1. The non-activating solution was set to pH 7.6, defining both the lysosomal and cytosolic pH before the start of the experiment. By exchanging the non-activating for the activating solution, we acidified the cytosolic solution and stimulated H^+ influx through TMEM175 (Figure 5A).
However, the application of pH jumps lead to significant artifact currents of positive magnitude, as observed with the control lysosomes (Figure 5C). These artifacts are a result of protons interacting with the lipid membranes and/or unknown H^+ leak pathways through the lysosomal membrane. To conclude pure TMEM175-related H^+ currents, we subtracted the artifact currents from the currents recorded with the TMEM175 sample. When plotting ΔpH against the artifact-corrected average TMEM175 net H^+ current, we obtain a close-to-linear correlation (Figure 5D).
For comparison with the I/c curve reported for K^+ (Figure 3E), we calculated the difference in H^+ concentration across the lysosomal membrane Δc = cH^out − cH^in, which correlates linearly with the passive H^+ flux J = PH+Δc according to Fick’s law.
We used H^+ concentration or pH jumps to measure H^+ flux through TMEM175. Non-activating solution was set to pH 7.6, while activating solution contained different pH values between pH 7.4 and pH 4.6; (B) Representative current traces induced by pH jumps on lysosomes overexpressing TMEM175. All current traces were recorded with the same sensor, starting from the lowest ΔpH. […] The remaining current mostly reflects the background (artifact) current after full block of TMEM175; (C) Representative current traces from the same experiment on control lysosomes. […] This represents the artifact current also underlying the currents recorded with the TMEM175 sample; (D) SEM and average, artifact-corrected, normalized peak currents from N = 4 sensors, reflecting the H^+ flux through TMEM175, solely driven by the pH gradient. […]

SMILES | Increase in K+ flux through TMEM175, literature [1] | Potency in SSME relative to APC (more potent in SSME) ([2]; EC50 APC / EC50 SSME) | Relative current / maximum potentiation, SSME [2] | Relative current / maximum potentiation, SSME ([2]; listed as arachidonic acid) | EC50 ([2]; tool enhancers, K+ flux, 50 mM K+ jump, pH 7.6, 0 mV, artifact-corrected, read-out: Half saturation (EC50), SSME) | Relative current, APC ([3]; enhancer, (30 µM), relative to baseline current (100%)) | EC50 and maximum potentiation in the absence of BSA, APC ([3]; no BSA vs 0.05% BSA) | Maximum potentiation (increase in TMEM175 activity), APC ([3]; standard assay with 0.05% BSA) | EC50 ([3]; tool compounds, Cs+ flux, outward current at +80 mV, 0.05% BSA, read-out: Half saturation (EC50), APC) | EC50 [4]
CCCCC/C=C\C/C=C\C/C=C\C/C=C\CCCC(=O)O [Arachidonic Acid, arachidonic acid] | 14 fold | 40 fold | 168 ± 5% (50 µM) | 168 ± 5% | 2.3 µM and 2.25 µM | 137 ± 6% (30 µM) | did not affect; also recorded: unaltered | 34% | 83 µM | 
[H+] [H^+] |  |  |  |  |  |  |  |  |  | 9.5 µM
